ChEMBL document CHEMBL1151757, “Synthesis, radiosynthesis, and biological evaluation of fluorine-18-labeled 2beta-carbo(fluoroalkoxy)-3beta-(3'-((Z)-2-haloethenyl)phenyl)nortropanes: candidate radioligands for in vivo imaging of the serotonin transporter with positron emission tomography” (J Med Chem, 2008)

What was measured:
Thalamus [1] = test: Drug uptake in anesthetized cynomolgus monkey brain thalamus after 235 mins postinjection; type: ADME, organism-based, Macaca fascicularis; design: unit not given here; settings: in vivo
Midbrain [2] = test: Drug uptake in anesthetized cynomolgus monkey brain midbrain after 9.5 mins postinjection; type: ADME, organism-based, Macaca fascicularis; design: unit not given here; settings: in vivo
Midbrain [3] = test: Drug uptake in anesthetized cynomolgus monkey brain midbrain after 125 mins postinjection; type: ADME, organism-based, Macaca fascicularis; design: unit not given here; settings: in vivo
[4] = Ratio of drug uptake in occipital lobe to cerebellum in anesthetized cynomolgus monkey after 18.5 mins postinjection; type: ADME, organism-based, Macaca fascicularis; settings: in vivo
Medulla [5] = test: Drug uptake in anesthetized cynomolgus monkey brain medulla after 195 mins postinjection; type: ADME, organism-based, Macaca fascicularis; settings: in vivo, 3.25 h
[6] = Drug uptake in anesthetized cynomolgus monkey brain occipital lobe after 3.5 mins postinjection; type: ADME, organism-based, Macaca fascicularis; settings: in vivo
[7] = Ratio of drug uptake in frontal lobe to cerebellum in anesthetized cynomolgus monkey after 125 mins postinjection; type: ADME, organism-based, Macaca fascicularis; settings: in vivo
Midbrain [8] = test: Drug uptake in anesthetized cynomolgus monkey brain midbrain after 1.5 mins postinjection; type: ADME, organism-based, Macaca fascicularis; design: unit not given here; settings: in vivo, 0.025 h
[9] = Drug uptake in anesthetized cynomolgus monkey brain frontal lobe after 85 mins postinjection; type: ADME, organism-based, Macaca fascicularis; settings: in vivo
[10] = Ratio of drug uptake in caudate to cerebellum in anesthetized cynomolgus monkey after 65 mins postinjection; type: ADME, organism-based, Macaca fascicularis; settings: in vivo
Medulla [11] = test: Drug uptake in anesthetized cynomolgus monkey brain medulla after 0.5 mins postinjection; type: ADME, organism-based, Macaca fascicularis; settings: in vivo
[12] = Ratio of drug uptake in putamen to cerebellum in anesthetized cynomolgus monkey after 35 mins postinjection; type: ADME, organism-based, Macaca fascicularis; settings: in vivo
Midbrain [13] = test: Drug uptake in anesthetized cynomolgus monkey brain midbrain after 195 mins postinjection; type: ADME, organism-based, Macaca fascicularis; settings: in vivo, 3.25 h
[14] = Ratio of drug uptake in thalamus to cerebellum in anesthetized cynomolgus monkey after 95 mins postinjection; type: ADME, organism-based, Macaca fascicularis; settings: in vivo
[15] = Drug uptake in anesthetized cynomolgus monkey brain cerebellum after 15.5 mins postinjection; type: ADME, organism-based, Macaca fascicularis; settings: in vivo
Putamen [16] = test: Drug uptake in anesthetized cynomolgus monkey brain putamen after 4.5 mins postinjection; type: ADME, organism-based, Macaca fascicularis; design: unit not given here; settings: in vivo, 0.075 h
Caudate [17] = test: Drug uptake in anesthetized cynomolgus monkey brain caudate after 165 mins postinjection; type: ADME, organism-based, Macaca fascicularis, Caudate nucleus; settings: in vivo, 2.75 h
[18] = Ratio of drug uptake in midbrain to cerebellum in anesthetized cynomolgus monkey after 18.5 mins postinjection; type: ADME, organism-based, Macaca fascicularis; settings: in vivo
[19] = Ratio of drug uptake in thalamus to cerebellum in anesthetized cynomolgus monkey after 195 mins postinjection; type: ADME, organism-based, Macaca fascicularis; settings: in vivo, 3.25 h
[20] = Ratio of drug uptake in pons to cerebellum in anesthetized cynomolgus monkey after 85 mins postinjection; type: ADME, organism-based, Macaca fascicularis; settings: in vivo
[21] = Ratio of drug uptake in pons to cerebellum in anesthetized cynomolgus monkey after 215 mins postinjection; type: ADME, organism-based, Macaca fascicularis; settings: in vivo
Putamen [22] = test: Drug uptake in anesthetized cynomolgus monkey brain putamen after 6.5 mins postinjection; type: ADME, organism-based, Macaca fascicularis; design: unit not given here; settings: in vivo
[23] = Drug uptake in anesthetized cynomolgus monkey brain frontal lobe after 235 mins postinjection; type: ADME, organism-based, Macaca fascicularis; settings: in vivo
Pons [24] = test: Drug uptake in anesthetized cynomolgus monkey brain pons after 27.5 mins postinjection; type: ADME, organism-based, Macaca fascicularis; settings: in vivo
[25] = Drug uptake in anesthetized cynomolgus monkey brain frontal lobe after 12.5 mins postinjection; type: ADME, organism-based, Macaca fascicularis; settings: in vivo
[26] = Drug uptake in anesthetized cynomolgus monkey brain cerebellum after 2.5 mins postinjection; type: ADME, organism-based, Macaca fascicularis; settings: in vivo
Putamen [27] = test: Drug uptake in anesthetized cynomolgus monkey brain putamen after 105 mins postinjection; type: ADME, organism-based, Macaca fascicularis; design: unit not given here; settings: in vivo, 1.75 h
Putamen [28] = test: Drug uptake in anesthetized cynomolgus monkey brain putamen after 205 mins postinjection; type: ADME, organism-based, Macaca fascicularis; settings: in vivo
[29] = Ratio of drug uptake in frontal lobe to cerebellum in anesthetized cynomolgus monkey after 75 mins postinjection; type: ADME, organism-based, Macaca fascicularis; settings: in vivo, 1.25 h
Caudate [30] = test: Drug uptake in anesthetized cynomolgus monkey brain caudate after 185 mins postinjection; type: ADME, organism-based, Macaca fascicularis, Caudate nucleus; settings: in vivo
[31] = Drug uptake in anesthetized cynomolgus monkey brain occipital lobe after 75 mins postinjection; type: ADME, organism-based, Macaca fascicularis; settings: in vivo, 1.25 h
Midbrain [32] = test: Drug uptake in anesthetized cynomolgus monkey brain midbrain after 155 mins postinjection; type: ADME, organism-based, Macaca fascicularis; settings: in vivo
[33] = Ratio of drug uptake in pons to cerebellum in anesthetized cynomolgus monkey after 185 mins postinjection; type: ADME, organism-based, Macaca fascicularis; settings: in vivo
Putamen [34] = test: Drug uptake in anesthetized cynomolgus monkey brain putamen after 115 mins postinjection; type: ADME, organism-based, Macaca fascicularis; design: unit not given here; settings: in vivo
Medulla [35] = test: Drug uptake in anesthetized cynomolgus monkey brain medulla after 75 mins postinjection; type: ADME, organism-based, Macaca fascicularis; settings: in vivo, 1.25 h
[36] = Ratio of drug uptake in pons to cerebellum in anesthetized cynomolgus monkey after 6.5 mins postinjection; type: ADME, organism-based, Macaca fascicularis; settings: in vivo
[37] = Ratio of drug uptake in pons to cerebellum in anesthetized cynomolgus monkey after 1.5 mins postinjection; type: ADME, organism-based, Macaca fascicularis; settings: in vivo, 0.025 h
[38] = Drug uptake in anesthetized cynomolgus monkey brain cerebellum after 18.5 mins postinjection; type: ADME, organism-based, Macaca fascicularis; settings: in vivo
Thalamus [39] = test: Drug uptake in anesthetized cynomolgus monkey brain thalamus after 215 mins postinjection; type: ADME, organism-based, Macaca fascicularis; design: unit not given here; settings: in vivo
[40] = Ratio of drug uptake in putamen to cerebellum in anesthetized cynomolgus monkey after 65 mins postinjection; type: ADME, organism-based, Macaca fascicularis; settings: in vivo
[41] = Ratio of drug uptake in medulla to cerebellum in anesthetized cynomolgus monkey after 185 mins postinjection; type: ADME, organism-based, Macaca fascicularis; settings: in vivo
Caudate [42] = test: Drug uptake in anesthetized cynomolgus monkey brain caudate after 15.5 mins postinjection; type: ADME, organism-based, Macaca fascicularis, Caudate nucleus; settings: in vivo
[43] = Drug uptake in anesthetized cynomolgus monkey brain frontal lobe after 95 mins postinjection; type: ADME, organism-based, Macaca fascicularis; settings: in vivo
Thalamus [44] = test: Drug uptake in anesthetized cynomolgus monkey brain thalamus after 12.5 mins postinjection; type: ADME, organism-based, Macaca fascicularis; design: unit not given here; settings: in vivo
[45] = Drug uptake in anesthetized cynomolgus monkey brain cerebellum after 225 mins postinjection; type: ADME, organism-based, Macaca fascicularis; settings: in vivo, 3.75 h
[46] = Ratio of drug uptake in pons to cerebellum in anesthetized cynomolgus monkey after 145 mins postinjection; type: ADME, organism-based, Macaca fascicularis; settings: in vivo
Pons [47] = test: Drug uptake in anesthetized cynomolgus monkey brain pons after 195 mins postinjection; type: ADME, organism-based, Macaca fascicularis; settings: in vivo, 3.25 h
Putamen [48] = test: Drug uptake in anesthetized cynomolgus monkey brain putamen after 35 mins postinjection; type: ADME, organism-based, Macaca fascicularis; design: unit not given here; settings: in vivo
[49] = Drug uptake in anesthetized cynomolgus monkey brain frontal lobe after 9.5 mins postinjection; type: ADME, organism-based, Macaca fascicularis; settings: in vivo
Medulla [50] = test: Drug uptake in anesthetized cynomolgus monkey brain medulla after 215 mins postinjection; type: ADME, organism-based, Macaca fascicularis; settings: in vivo
Thalamus [51] = test: Drug uptake in anesthetized cynomolgus monkey brain thalamus after 0.5 mins postinjection; type: ADME, organism-based, Macaca fascicularis; settings: in vivo
[52] = Drug uptake in anesthetized cynomolgus monkey brain occipital lobe after 22.5 mins postinjection; type: ADME, organism-based, Macaca fascicularis; settings: in vivo, 0.375 h
[53] = Ratio of drug uptake in occipital lobe to cerebellum in anesthetized cynomolgus monkey after 135 mins postinjection; type: ADME, organism-based, Macaca fascicularis; settings: in vivo, 2.25 h
Thalamus [54] = test: Drug uptake in anesthetized cynomolgus monkey brain thalamus after 205 mins postinjection; type: ADME, organism-based, Macaca fascicularis; settings: in vivo
Caudate [55] = test: Drug uptake in anesthetized cynomolgus monkey brain caudate after 0.5 mins postinjection; type: ADME, organism-based, Macaca fascicularis, Caudate nucleus; settings: in vivo
[56] = Drug uptake in anesthetized cynomolgus monkey brain frontal lobe after 27.5 mins postinjection; type: ADME, organism-based, Macaca fascicularis; settings: in vivo
Medulla [57] = test: Drug uptake in anesthetized cynomolgus monkey brain medulla after 35 mins postinjection; type: ADME, organism-based, Macaca fascicularis; settings: in vivo
[58] = Drug uptake in anesthetized cynomolgus monkey brain frontal lobe after 175 mins postinjection; type: ADME, organism-based, Macaca fascicularis; settings: in vivo
Medulla [59] = test: Drug uptake in anesthetized cynomolgus monkey brain medulla after 55 mins postinjection; type: ADME, organism-based, Macaca fascicularis; settings: in vivo
[60] = Drug uptake in anesthetized cynomolgus monkey brain frontal lobe after 195 mins postinjection; type: ADME, organism-based, Macaca fascicularis; settings: in vivo, 3.25 h
[61] = Drug uptake in anesthetized cynomolgus monkey brain occipital lobe after 195 mins postinjection; type: ADME, organism-based, Macaca fascicularis; settings: in vivo, 3.25 h
Thalamus [62] = test: Drug uptake in anesthetized cynomolgus monkey brain thalamus after 135 mins postinjection; type: ADME, organism-based, Macaca fascicularis; design: unit not given here; settings: in vivo, 2.25 h
[63] = Drug uptake in anesthetized cynomolgus monkey brain cerebellum after 9.5 mins postinjection; type: ADME, organism-based, Macaca fascicularis; settings: in vivo
Midbrain [64] = test: Drug uptake in anesthetized cynomolgus monkey brain midbrain after 225 mins postinjection; type: ADME, organism-based, Macaca fascicularis; settings: in vivo, 3.75 h
[65] = Drug uptake in anesthetized cynomolgus monkey brain cerebellum after 22.5 mins postinjection; type: ADME, organism-based, Macaca fascicularis; settings: in vivo, 0.375 h
[66] = Ratio of drug uptake in pons to cerebellum in anesthetized cynomolgus monkey after 95 mins postinjection; type: ADME, organism-based, Macaca fascicularis; settings: in vivo
Caudate [67] = test: Drug uptake in anesthetized cynomolgus monkey brain caudate after 205 mins postinjection; type: ADME, organism-based, Macaca fascicularis, Caudate nucleus; settings: in vivo

With `O=C(OCCC[18F])C1C2CCC(CC1c1cccc(/C=C\I)c1)N2` (configuration not stated) the Drug uptake (Thalamus [1]) was 2.78, the Drug uptake (Midbrain [2]) was 4 and the Drug uptake (Midbrain [3]) was 4.58. For the same molecule, the Ratio [4] was 0.8, the Drug uptake (Medulla [5]) was 3.78 and the Drug uptake [6] was 1.29. It also gave a Ratio [7] of 0.9, a Drug uptake (Midbrain [8]) of 0.32 and a Drug uptake [9] of 2.71. For the same molecule, the Ratio [10] was 1, the Drug uptake (Medulla [11]) was 0.01 and the Ratio [12] was 1.1. It also gave a Drug uptake (Midbrain [13]) of 3.85, a Ratio [14] of 1.3 and a Drug uptake [15] of 4.75. The Drug uptake (Putamen [16]) was 2.31, the Drug uptake (Caudate [17]) was 3.04 and the Ratio [18] was 1. The Ratio [19] was 1.5, the Ratio [20] was 1.1 and the Ratio [21] was 1.5. It also gave a Drug uptake (Putamen [22]) of 3.28, a Drug uptake [23] of 1.78 and a Drug uptake (Pons [24]) of 4.39. For the same molecule, the Drug uptake [25] was 2.24, the Drug uptake [26] was 1.12 and the Drug uptake (Putamen [27]) was 4.52. It also gave a Drug uptake (Putamen [28]) of 3.31, a Ratio [29] of 0.7 and a Drug uptake (Caudate [30]) of 2.82. It also gave a Drug uptake [31] of 3.68, a Drug uptake (Midbrain [32]) of 4.35 and a Ratio [33] of 1.5. It also gave a Drug uptake (Putamen [34]) of 4.44, a Drug uptake (Medulla [35]) of 5.16 and a Ratio [36] of 0.7. The Ratio [37] was 0.8, the Drug uptake [38] was 4.74 and the Drug uptake (Thalamus [39]) was 3.02. The Ratio [40] was 1.2, the Ratio [41] was 1.8 and the Drug uptake (Caudate [42]) was 3.34. The Drug uptake [43] was 2.68, the Drug uptake (Thalamus [44]) was 3.75 and the Drug uptake [45] was 1.87. The Ratio [46] was 1.6, the Drug uptake (Pons [47]) was 3.26 and the Drug uptake (Putamen [48]) was 4.99. The Drug uptake [49] was 2.11, the Drug uptake (Medulla [50]) was 3.66 and the Drug uptake (Thalamus [51]) was 0.01. It also gave a Drug uptake [52] of 3.88, a Ratio [53] of 1.1 and a Drug uptake (Thalamus [54]) of 3.14. The Drug uptake (Caudate [55]) was 0.01, the Drug uptake [56] was 2.72 and the Drug uptake (Medulla [57]) was 5.04. The Drug uptake [58] was 2.05, the Drug uptake (Medulla [59]) was 5.06 and the Drug uptake [60] was 1.96. The Drug uptake [61] was 2.34, the Drug uptake (Thalamus [62]) was 4.02 and the Drug uptake [63] was 4.24. The Drug uptake (Midbrain [64]) was 3.76, the Drug uptake [65] was 4.78 and the Ratio [66] was 1.3. For the same molecule, the Drug uptake (Caudate [67]) was 2.65.
